The values below are quoted from earlier work in US20240352056A1, “Improved methods for production of cyclic guanosine-monophosphate analogues” (Mireca Medicines GmbH, priority 2021, published 2024).

The test system of series [1] is photoreceptors.
Series [2] relates to PKG.
Series [3] relates to cGMP-dependent protein kinase.
Series [4] deals with cAMP-dependent protein kinase.
In series [5] the test system is rd1 and rd2 photoreceptors. Conditions: rd1 and rd2 mouse retinitis pigmentosa models, in vitro and in vivo.

With `O=c1c2nc(Br)n([C@@H]3O[C@@H]4CO[P@@](O)(=S)O[C@H]4[C@H]3O)c2nc2[nH]c(-c3ccccc3)cn12` [1a, Triethylammonium Rp-8-Bromo-β-phenyl-1,N2-ethenoguanosine-3′, 5′-cyclic monophosphorothioate], the “neuroprotective effects in vivo” value in series [1] is given as “potent neuroprotective effects in vivo”. The “activity towards PKG (agonist or antagonist)” value in series [2] was “antagonistic activity towards PKG”.

Turning to `Nc1nc2c(nc(Cl)n2[C@@H]2O[C@@H]3CO[P@@](O)(=S)O[C@H]3[C@H]2O)c(=O)[nH]1` [(Rp)-8-Cl-cGMPS, 8-chloroguanosine 3′, 5′-monophosphorothioate], in series [3], the “antagonism of the activation of the cGMP-dependent protein kinase” value is listed as “antagonized the activation of the cGMP-dependent protein kinase”; the “binding to cGMP-dependent protein kinase and stimulation of its phosphotransferase activity” value (“binding” below) was “bound to the enzyme without stimulation of its activity”; the “selectivity for cGMP-dependent over cAMP-dependent protein kinase” value is reported as “rather selective inhibitor of the cGMP-dependent protein kinase”. Besides, in series [4], the “antagonism / inhibition of cAMP-dependent protein kinase” value was “weak inhibitor”.

Turning to `Nc1nc2c(ncn2[C@@H]2O[C@@H]3COP(O)(=S)O[C@H]3[C@H]2O)c(=O)[nH]1` (stereo partly drawn) [(Rp)-cGMPS, guanosine 3′, 5′-monophosphorothioate], in series [3], the “antagonism of the activation of the cGMP-dependent protein kinase” value is given as “antagonized the activation of the cGMP-dependent protein kinase”; the “binding” value is “bound to the enzyme without stimulation of its activity”. The “antagonism / inhibition of cAMP-dependent protein kinase” value in series [4] was “antagonized the activation of cAMP-dependent protein kinase”.

Turning to `Nc1nc2c(nc(Cl)n2[C@@H]2O[C@@H]3CO[P@@](O)(=S)O[C@H]3[C@H]2O)c(=O)[nH]1` [(Sp)-8-Cl-cGMPS, 8-chloroguanosine 3′, 5′-monophosphorothioate], the “binding” value in series [3] is reported as “stimulated its phosphotransferase activity”.

On to `Nc1nc2c(ncn2[C@@H]2O[C@@H]3COP(O)(=S)O[C@H]3[C@H]2O)c(=O)[nH]1` (stereo partly drawn) [(Sp)-cGMPS, guanosine 3′, 5′-monophosphorothioate], for which, in series [3], the “binding” value is listed as “stimulated its phosphotransferase activity”.

Consider `Nc1nc2c(nc(Br)n2[C@@H]2O[C@@H]3COP(O)(=S)O[C@H]3[C@H]2O)c(=O)[nH]1` (stereo partly drawn) [Rp-8-Br-cGMPS], for which the protection of photoreceptors entry in series [5] was “protection of rd1 and rd2 photoreceptors”.
